Marks after values point to notes of the source that are not given here.
Legend:
[1] = system: Male Wistar rats; assay: Behavioral despair "forced swimming" test; format: in vivo, rat; details: 30 min pretreatment; for Duration of immobility: mean ± SEM
Source text: Behavioral despair was proposed as a model to test for antidepressant activity by Porsolt et al (25-27). […] This behavior reflects a state of despair which can be reduced by several agents which are therapeutically effective in human depression.
Procedure—The procedure described by Porsolt et al. (25-27) was used with minor modifications described by Chatterjee et al. (28-29). Male Wistar rats weighing 170-200 g were used. They were brought to the laboratory at least one day before the experiment and were housed separately in cages with free access to food and water. Naive rats were individually forced to swim inside a vertical glass cylinder (height: 50 cm; diameter: 25 cm, containing 20 cm of water maintained at 25° C.). […] After 2-3 minutes, activity began to subside and to be interspersed with phases of immobility or floating of increasing length. After 5-6 minutes, immobility reached a plateau where the rats remained immobile for approximately 80% of the time. After 15 minutes in the water, the rats were removed and allowed to dry in a heated enclosure (32° C.) before being returned to their home cages. Total immobility time, i.e., the time of complete cessation of swimming with the head floating just above water level, was quantified 48 hours later after re-exposing them to the water for 5 minutes. They were placed in the cylinder 48 hours later and the total duration of immobility was measured during a 5 minute test. […] An animal was judged to be immobile whenever it remained floating passively in the water in a slightly hunched but upright position, its nose just above the surface. Test samples (Hypericum extracts: HP, HPSE, Jarsin 300, HRFC, Crassulaceae special extracts, Carpediol) and standard drugs (amitriptyline and Imipramine) were administered 3 times immediately after pre-exposure, and 24 and one hour prior to testing (re-exposure) as described in Chatterjee et al., Antidepressant activity of Hypericum perforatum and Hyperforin: the neglected possibility. Pharmacopsychiatry. 31 (Suppl 1):7-15 1998), which is incorporated by reference herein in its entirety.
Evaluation—Duration of immobility was measured in controls and animals treated with various doses of a test drug or standard. Antidepressant drugs, but also stimulants like amphetamine and caffeine, reduced duration of immobility. Dose-responses were evaluated.
Two series of experiments were performed with the following test drugs:
Series A: HP, HPSE, HRFC, CRE, Jarsin, amitriptyline.
Series B: CRE-A, CRE-B, CRE-C, CRE-D, ASFC, imipramine.
They were group-housed, four per cage at ambient temperature of 20±2° and 40-50% relative humidity, with a 12 hour dark/12 hour light cycle (lighting on time 8 a.m.). The animals had free access to pellet chow (Comby) and drinking water.
The extracts were administered once daily for 3 consecutive days. Experiments were performed on day 3, 1 hour after the last drug or vehicle application. Amitriptyline was used as the standard antidepressant, and was administered in a single dose of 3 mg/kg (p.o.) with a pretreatment time of 30 min.
They were administered in a volume of 5 ml/kg (p.o.). The extracts were administered once daily for 3 consecutive days. Experiments were performed on day 3, 1 hour after the last drug or vehicle application. Imipramine-HCl diluted with water to concentration of 6 mg/ml, positive control was used as the standard antidepressant. Imipramine was administered in a single dose of 30 mg/kg (p.o.) with a pretreatment time of 30 minutes. All behavioral studies were performed between 1-3 p.m. and recorded by a video camera. The tapes were evaluated afterwards by an observer who was not informed about the type of treatment each animal had received.
Statistics—Statistical analysis of the duration of immobilization time of rats in swimming test was performed by unpaired two tailed Students t-test with significance 95% confidence interval. […]

[2] = simultaneous application; cited from earlier work
[3] = Series A, 3 mg/kg p.o. single dose
[4] = Series B, 30 mg/kg p.o. single dose

## CN(C)CCC=C1c2ccccc2CCc2ccccc21 [Amitriptyline]
[1]; [3]
  Percent (duration of immobility vs vehicle): 66.3%
  Percent decrease (duration of immobility): 43.7%
  Duration of immobility: 117.8 ± 33.32, n = 8 seconds

## CN(C)CCCN1c2ccccc2CCc2ccccc21 [Imipramine]
[1]; [4]
  Percent (duration of immobility vs vehicle): 34.9*** Percent
  Percent decrease (duration of immobility): 65.1*** Percent
  Duration of immobility: 76.0 ± 21.1 n = 6 Seconds

## CN/C(=N/CCSCc1nc[nH]c1C)NC#N [cimetidine]
[2]
  Effect on the metabolism of theophylline (in words): inhibit

## CC(C)NCC(O)COc1cccc2ccccc12 (centres unmarked) [propranolol]
[2]
  Effect on the metabolism of theophylline (in words): inhibit
